Measured values as given in a compilation of properties of binary mixtures (doi:10.1016/j.jct.2017.01.014).

Test: xn = mol fraction of the nth substance listed
Conditions: 100 kPa

CCCC[n+]1ccn(C)c1.O=S(=O)([N-]S(=O)(=O)C(F)(F)F)C(F)(F)F + C=CN1CCCC1=O
x2 = 0
Conditions | speed of sound [m/s]
298.15 K | 1227.9
303.15 K | 1216.8
308.15 K | 1205.8
313.15 K | 1195
318.15 K | 1184.2
323.15 K | 1173.6

C=CN1CCCC1=O + CCCC[n+]1ccn(C)c1.O=S(=O)([N-]S(=O)(=O)C(F)(F)F)C(F)(F)F
speed of sound [m/s]
Conditions | x1 = 0.1377 | x1 = 0.2099 | x1 = 0.3148 | x1 = 0.4117 | x1 = 0.5061 | x1 = 0.6078 | x1 = 0.7032 | x1 = 0.79 | x1 = 0.8989 | x1 = 1
298.15 K | 1241.2 | 1249.4 | 1263 | 1278.3 | 1296.5 | 1321.4 | 1350.7 | 1384.6 | 1442.2 | –
303.15 K | 1229.8 | 1237.8 | 1251.1 | 1266.1 | 1283.9 | 1308.1 | 1336.6 | 1369.6 | 1425.6 | 1502.5
308.15 K | 1218.5 | – | – | 1253.8 | 1271.2 | 1294.7 | 1322.7 | 1354.8 | 1409.1 | 1483.7
313.15 K | 1207.3 | – | 1227.5 | 1241.7 | – | 1281.5 | 1308.7 | 1340 | 1392.8 | 1465
318.15 K | – | 1203.6 | – | 1229.7 | 1246.1 | 1268.4 | 1294.9 | 1325.3 | 1376.5 | –
323.15 K | 1185.3 | – | – | 1217.8 | 1233.8 | 1255.4 | 1281.1 | 1310.5 | 1360.3 | 1428.1
